In brackets after ≈: the same amount, converted by molar mass.
Experiments:
[1] = tested on: SRS-A synthesis or release from peritoneal exudate cells (5-lipoxygenase); assay: Anti-SRS-A activity (5-lipoxygenase inhibitory activity); type: cell-based, SD rats; conditions: A23187 (1 μg/ml)-stimulated rat peritoneal exudate cells, indomethacin 10 μg/ml; SRS-A by contractility of isolated guinea pig ileum; read-out: Inhibitory Concentration IC50
Procedure: Anti-SRS-A activity (5-lipoxygenase inhibitory activity)
Peritoneal exudate cells were collected from glycogen-injected SD rats and adjusted to 1×10^7 cells/ml with Tyrode's solution. One milliliter of the cell suspension was incubated with indomethacin (10 μg/ml) and each varied concentration of the test compound for 10 minutes and, then, further incubated with Ca^++ -ionophore (A23187, 1 μg/ml) for 10 minutes. The supernatant was collected by centrifugation and the SRS-A (slow-reacting substance of anaphylaxis) activity was determined in terms of contractility of the isolated guinea pig ileum in the presence of mepyramine, atropine and methysergide.
The results were expressed in terms of the 50% inhibitory concentration to SRS-A synthesis or release from peritoneal exudate cells.

[2] = tested on: anaphylactic asthma in guinea pigs; assay: Antagonistic action on anaphylactic asthma in guinea pigs; type: in vivo, guinea pigs (male Hartley-strain); conditions: Cavia porcellus; oral, 30 minutes prior to egg-white albumin aerosol; survival not less than 2 hours after antigen spraying; read-out: Prophylactic Effect ED50
Procedure: Antagonistic action on anaphylactic asthma in guinea pigs
Male Hartley-strain guinea pigs weighing 305-400 g were used. These animals were sensitized by intravenous injection of 0.5 ml/animal of rabbit antiserum to egg-white albumin (PCA antibody titer 4,000). After 24 hours, the animals were housed individually in 5.3-liter plastic chambers. Using a commercial sprayer, a 5% egg-white albumin solution was sprayed in the form of an aerosol into each chamber at a rate of 0.16 ml/min for 2 minutes. Thirty minutes prior to the spraying of the egg-white albumin solution, the test compound was administered orally in varied concentrations. Each dosed group consisted of 5 animals. The prophylactic effect to anaphylaxis was expressed in terms of the ED50 value determined on the basis of the number of guinea pigs which had survived for not less than 2 hours after antigen spraying for each administration concentration of the test compound.

CCCC(=O)Nc1nc(CN2CCC(OC(c3ccccc3)c3ccccc3)CC2)cs1 [Compound C, 2-Butyrylamino-4-[4-(diphenylmethoxy)piperidinomethyl]thiazole]
IC50 [1]: 0.023 µg/mL (≈ 0.0512 µM)

CNC(=O)Nc1nc(CN2CCC(OC(c3ccccc3)c3ccccc3)CC2)cs1 [Compound G, 2-(3-Methylureido)-4-[4-(diphenylmethoxy)piperidinomethyl]thiazole]
IC50 [1]: 0.015 µg/mL (≈ 0.0344 µM)

CS(=O)(=O)Nc1nc(CN2CCC(OC(c3ccccc3)c3ccccc3)CC2)cs1 [Compound A, 2-Mesylamino-4-[4-(diphenylmethoxy)piperidinomethyl]thiazole]
ED50 [2]: 0.03 mg/kg

CCOC(=O)Nc1nc(CN2CCC(OC(c3ccccc3)c3ccccc3)CC2)cs1 [Compound F, 2-Ethoxycarbonylamino-4-[4-(diphenylmethoxy)piperidinomethyl]thiazole]
IC50 [1]: 0.014 µg/mL (≈ 0.031 µM)

C[C@@H](O)C(=O)Nc1nc(CN2CCC(OC(c3ccccc3)c3ccccc3)CC2)cs1 [Compound E, 2-(D-Lactoylamino)-4-[4-(diphenylmethoxy)piperidinomethyl]thiazole]
IC50 [1]: 0.015 µg/mL (≈ 0.0332 µM)

O=C(Nc1nc(CN2CCC(OC(c3ccccc3)c3ccccc3)CC2)cs1)C1CC1 [Compound D, 2-Cyclopropylcarbonylamino-4-[4-(diphenylmethoxy)piperidinomethyl]thiazole]
IC50 [1]: 0.011 µg/mL (≈ 0.0246 µM)

CCC(=O)Nc1nc(CN2CCC(OC(c3ccccc3)c3ccccc3)CC2)cs1 [Compound B, 2-Propionylamino-4-[4-(diphenylmethoxy)piperidinomethyl]thiazole]
IC50 [1]: 0.023 µg/mL (≈ 0.0528 µM)

— patent publication US4921887A, “Thiazole compounds and pharmaceutical composition comprising the same” (Fujisawa Pharmaceutical Company, Ltd., priority 1987, dated 1990)
